Common to all, as to test: Cell proliferation assay (Alamar Blue)
Common to all, as to assay type: cell-based
(In general: The colour change of resazurin is a common sign of viable cells or microbes.)

Test [1] concerns 22RV1. To be noted: Homo sapiens, 144 h; 22RV1 tumor cell line; 6 days. In outline: (§1)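 AlamarBlue fluorescence (ex 560, em 590 nm) after 6-day compound exposure; IC50 by four-parameter fit. Nine 3.16-fold dilutions, top 30 or 100 μM, duplicate wells. Log-phase cells plated at line-optimised density, 4 h pre-incubation.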
Test [2] concerns AN3CA. Particulars: Homo sapiens, AN3-CA, 144 h; AN3CA (endometrial cells); 6 days. In outline: as §1
Test [3] concerns Alexander cells. Particulars: 144 h, liver cancer cell line, 6 days. In outline:
as §1

Test [4] deals with HCCLM3. Particulars: Homo sapiens, 144 h; HCCLM3 tumor cell line; 6 days. In outline: as §1
Test [5] deals with HEPG2. Particulars: Homo sapiens, 144 h; HEPG2 liver cancer cell line; 6 days. The gist of the method:
as §1

Test [6] relates to HT1080. To be noted: Homo sapiens, HT-1080, 144 h; HT1080 tumor cell line; 6 days. In outline: as §1
Test [7] deals with HUH1. To be noted: Homo sapiens, HuH-1, 144 h; HUH1 liver cancer cell line; 6 days. The gist of the method:
as §1

For test [8], the system named is Hep3B2.1-7. To be noted: 144 h; Hep3B2.1-7 liver cancer cell line; 6 days. In outline: as §1
For test [9], the system named is JHH1. Particulars: 144 h; JHH1 liver cancer cell line; 6 days. The gist of the method: as §1
Test [10] relates to JHH2. Particulars: JHH-2, 144 h; JHH2 liver cancer cell line; 6 days. In outline: as §1
The subject of test [11] is JHH7. To be noted: 144 h; JHH7 liver cancer cell line; 6 days. The gist of the method:
as §1

Test [12] deals with KASUMI-1. To be noted: Homo sapiens, 144 h; KASUMI-1 (leukemia cells); 6 days. In outline: as §1
Test [13] relates to KM12. Particulars: Homo sapiens, 144 h; KM12 tumor cell line; 6 days. In outline:
as §1

The subject of test [14] is LNCAP-clone-FGC. Particulars: Homo sapiens, 144 h; LNCAP-clone-FGC tumor cell line; 6 days. The gist of the method: as §1
In test [15] the test system is NCl-H526. To be noted: 144 h; NCl-H526 tumor cell line; 6 days. In outline: as §1
Test [16] has as its system SK-HEP-1. Particulars: Homo sapiens, SK-HEP1, 144 h; SK-HEP-1 liver cancer cell line; 6 days. In outline: as §1
In test [17] the test system is SNU354. Particulars: Homo sapiens, SNU-354, 144 h; SNU354 liver cancer cell line; 6 days. The gist of the method: as §1
Test [18] has as its system SNU423. To be noted: Homo sapiens, SNU-423, 144 h; SNU423 liver cancer cell line; 6 days. In outline:
as §1

Test [19] deals with SNU475. Particulars: Homo sapiens, SNU-475, 144 h; SNU475 liver cancer cell line; 6 days. In outline: as §1
For test [20], the system named is SNU739. Particulars: SNU-739, 144 h; SNU739 liver cancer cell line; 6 days. In outline: as §1
The test system of test [21] is SNU761. Particulars: 144 h; SNU761 liver cancer cell line; 6 days. The gist of the method:
as §1

The subject of test [22] is T.T. To be noted: Homo sapiens, TT, 144 h; T.T tumor cell line; 6 days. The gist of the method: as §1
Test [23] relates to TE-15. Particulars: Homo sapiens, 144 h; TE-15 tumor cell line; 6 days. The gist of the method:
as §1

SMILES strings stand for the structures. A value given as a limit tells only on which side of the number the result lay.

Usually IC50 stands for the midpoint of a concentration-inhibition curve. For `Cc1ccc(F)c(NC(=O)Nc2ccc(-c3cccc4c3c(N)nn4C(=O)CCCCCNC(=O)C[C@H](N)C(=O)N[C@@H](CCC(=O)N[C@@H](CCC(=O)N[C@@H](CCC(=O)N[C@@H](CCC(=O)N[C@@H](CCC(=O)N[C@@H](CCC(=O)N[C@@H](CCC(=O)N[C@@H](CCC(=O)N[C@@H](CCC(=O)O)C(=O)O)C(=O)O)C(=O)O)C(=O)O)C(=O)O)C(=O)O)C(=O)O)C(=O)O)C(=O)O)cc2)c1` [Compound 6], the IC50 in test [1] is over 100 µM; in test [2], 55.4 µM; in [3] it was over 100 µM; in test [4] it was over 100 µM; in test [5] it was 43.4 µM; in test [6], over 100 µM. For the same compound, the IC50 in test [7] is over 100 µM; in test [8], 95.6 µM; in test [9], over 100 µM; in test [10], over 100 µM; in test [11], 83.2 µM; in [12] it was 4.94 µM. The IC50 in [13] was 70 µM; in test [14] it was over 100 µM; in test [15], over 100 µM; in [16] it was over 100 µM; in [17] it was over 100 µM; in test [18], over 100 µM. Moreover, the IC50 in test [19], in test [20], in [21], in test [22] and in [23] was over 100 µM throughout.
Take `Cc1ccc(F)c(NC(=O)Nc2ccc(-c3cccc4c3c(N)nn4C(=O)CCCCCNC(=O)C[C@H](N)C(=O)N[C@@H](CCC(=O)N[C@@H](CCC(=O)N[C@@H](CCC(=O)N[C@@H](CCC(=O)O)C(=O)O)C(=O)O)C(=O)O)C(=O)O)cc2)c1` [Compound 5]: the IC50 in test [1] is over 100 µM; in [2], 45.6 µM; in test [3] it was over 100 µM; in [4] it was over 100 µM; in test [5], 30.8 µM; in [6] it was over 100 µM. The IC50 in [7] is 82.3 µM; in test [8], 76.5 µM; in test [9], over 100 µM; in test [10], over 100 µM; in [11], 57.8 µM; in [12], 3.21 µM. Moreover, the IC50 is 45.7 µM in [13]; over 100 µM in test [14]; over 100 µM in test [15]; 85.1 µM in [16]; over 100 µM in [17]; over 100 µM in [18]. The IC50 in [19], in [20], in test [21], in test [22] and in test [23] was over 100 µM throughout.
For the compound `Cc1ccc(F)c(NC(=O)Nc2ccc(-c3cccc4c3c(N)nn4C(=O)C[C@H](N)C(=O)N[C@@H](CCC(=O)O)C(=O)O)cc2)c1` [Compound 1], the IC50 in [1] worked out at 6.69 µM; in test [2], 0.31 µM; in test [3] it was 5.5 µM; in test [4] it was 11.4 µM; in test [5], 0.45 µM; in [6], 13.2 µM. The IC50 in test [7] stood at 4.42 µM; in [8], 1.59 µM; in test [9], 8.15 µM; in test [10], 28.9 µM; in test [11], 1.81 µM; in test [12], 0.051 µM. The IC50 came out at 1.89 µM in test [13]; 5.47 µM in test [14]; 6.6 µM in [15]; 4.59 µM in test [16]; 3.91 µM in test [17]; 9.03 µM in test [18]. The IC50 was determined as 4.85 µM in test [19]; 4.56 µM in [20]; 9.53 µM in test [21]; 5.22 µM in [22]; 7.59 µM in [23].
On to `Cc1ccc(F)c(NC(=O)Nc2ccc(-c3cccc4c3c(N)nn4C(=O)CCCCCCCCCCCNC(=O)C[C@H](N)C(=O)N[C@@H](CCC(=O)O)C(=O)O)cc2)c1` [Compound 7], for which the IC50 is over 100 µM in test [1]; 2.94 µM in test [2]; 98 µM in test [3]; over 100 µM in test [4]; 5.83 µM in [5]; over 100 µM in [6]. In addition, the IC50 was 21.2 µM in test [7]; 13 µM in [8]; over 100 µM in [9]; over 100 µM in test [10]; 9.98 µM in test [11]; 0.096 µM in [12]. The IC50 in test [13] is 7.72 µM; in [14], 26.7 µM; in test [15] it was over 100 µM; in test [16] it was 29.2 µM; in [17], 30.2 µM; in [18], over 100 µM. For the same compound, the 50% inhibitory concentration (IC50) in [19] was 40.7 µM; in test [20], 37.4 µM; in [21] it was over 100 µM; in test [22], over 100 µM; in test [23] it was 63.6 µM.
With `Cc1ccc(F)c(NC(=O)Nc2ccc(-c3cccc4c3c(N)nn4C(=O)CCCCCCCCCCCNC(=O)C[C@H](N)C(=O)N[C@@H](CCC(=O)N[C@@H](CCC(=O)N[C@@H](CCC(=O)N[C@@H](CCC(=O)N[C@@H](CCC(=O)N[C@@H](CCC(=O)N[C@@H](CCC(=O)N[C@@H](CCC(=O)N[C@@H](CCC(=O)O)C(=O)O)C(=O)O)C(=O)O)C(=O)O)C(=O)O)C(=O)O)C(=O)O)C(=O)O)C(=O)O)cc2)c1` [Compound 9], the IC50 in test [1] was over 100 µM; in test [2] it was 8.42 µM; in [3] it was over 100 µM; in test [4], over 100 µM; in test [5], 11 µM; in test [6] it was over 100 µM. The IC50 is 52.4 µM in test [7]; 52.8 µM in test [8]; over 100 µM in test [9]; over 100 µM in test [10]; 42.2 µM in test [11]; 0.23 µM in test [12]. Also, the IC50 is 21.8 µM in [13]; over 100 µM in test [14]; over 100 µM in test [15]; over 100 µM in [16]; 67.3 µM in [17]; over 100 µM in test [18]. Further, the IC50 was 77.8 µM in test [19]; over 100 µM in test [20]; over 100 µM in test [21]; over 100 µM in [22]; 88.9 µM in [23].
For the compound `Cc1ccc(F)c(NC(=O)Nc2ccc(-c3cccc4c3c(N)nn4C(=O)CCCCCCCCCCCNC(=O)C[C@H](N)C(=O)O)cc2)c1` [Compound 12], the IC50 was over 30 µM in test [1]; 2.08 µM in [2]; over 30 µM in test [3]; over 30 µM in [4]; over 30 µM in test [5]; over 30 µM in test [6]. Besides, the IC50 in test [7] is over 30 µM; in [8], over 30 µM; in test [9], over 30 µM; in test [10], over 30 µM; in test [11], over 30 µM; in test [12] it was 0.05 µM. Also, the IC50 in [13] is over 30 µM; in [14], over 30 µM; in test [15], over 30 µM; in test [16], over 30 µM; in test [17], over 30 µM; in [18] it was 10.9 µM. Further, the IC50 in test [19], in [20], in test [21], in [22] and in test [23] was over 30 µM each time.
